Data published in ChEMBL document CHEMBL3991601, “The target landscape of clinical kinase drugs” (Science, 2017).
Activity calls are given as the source filed them.

These molecules were tested against Chromodomain-helicase-DNA-binding protein 4 (Homo sapiens, UniProt Q14839).
Further: in the data inactive means no Kd found up to 30 µM.

Sequence of Chromodomain-helicase-DNA-binding protein 4 (Q14839 whole entry): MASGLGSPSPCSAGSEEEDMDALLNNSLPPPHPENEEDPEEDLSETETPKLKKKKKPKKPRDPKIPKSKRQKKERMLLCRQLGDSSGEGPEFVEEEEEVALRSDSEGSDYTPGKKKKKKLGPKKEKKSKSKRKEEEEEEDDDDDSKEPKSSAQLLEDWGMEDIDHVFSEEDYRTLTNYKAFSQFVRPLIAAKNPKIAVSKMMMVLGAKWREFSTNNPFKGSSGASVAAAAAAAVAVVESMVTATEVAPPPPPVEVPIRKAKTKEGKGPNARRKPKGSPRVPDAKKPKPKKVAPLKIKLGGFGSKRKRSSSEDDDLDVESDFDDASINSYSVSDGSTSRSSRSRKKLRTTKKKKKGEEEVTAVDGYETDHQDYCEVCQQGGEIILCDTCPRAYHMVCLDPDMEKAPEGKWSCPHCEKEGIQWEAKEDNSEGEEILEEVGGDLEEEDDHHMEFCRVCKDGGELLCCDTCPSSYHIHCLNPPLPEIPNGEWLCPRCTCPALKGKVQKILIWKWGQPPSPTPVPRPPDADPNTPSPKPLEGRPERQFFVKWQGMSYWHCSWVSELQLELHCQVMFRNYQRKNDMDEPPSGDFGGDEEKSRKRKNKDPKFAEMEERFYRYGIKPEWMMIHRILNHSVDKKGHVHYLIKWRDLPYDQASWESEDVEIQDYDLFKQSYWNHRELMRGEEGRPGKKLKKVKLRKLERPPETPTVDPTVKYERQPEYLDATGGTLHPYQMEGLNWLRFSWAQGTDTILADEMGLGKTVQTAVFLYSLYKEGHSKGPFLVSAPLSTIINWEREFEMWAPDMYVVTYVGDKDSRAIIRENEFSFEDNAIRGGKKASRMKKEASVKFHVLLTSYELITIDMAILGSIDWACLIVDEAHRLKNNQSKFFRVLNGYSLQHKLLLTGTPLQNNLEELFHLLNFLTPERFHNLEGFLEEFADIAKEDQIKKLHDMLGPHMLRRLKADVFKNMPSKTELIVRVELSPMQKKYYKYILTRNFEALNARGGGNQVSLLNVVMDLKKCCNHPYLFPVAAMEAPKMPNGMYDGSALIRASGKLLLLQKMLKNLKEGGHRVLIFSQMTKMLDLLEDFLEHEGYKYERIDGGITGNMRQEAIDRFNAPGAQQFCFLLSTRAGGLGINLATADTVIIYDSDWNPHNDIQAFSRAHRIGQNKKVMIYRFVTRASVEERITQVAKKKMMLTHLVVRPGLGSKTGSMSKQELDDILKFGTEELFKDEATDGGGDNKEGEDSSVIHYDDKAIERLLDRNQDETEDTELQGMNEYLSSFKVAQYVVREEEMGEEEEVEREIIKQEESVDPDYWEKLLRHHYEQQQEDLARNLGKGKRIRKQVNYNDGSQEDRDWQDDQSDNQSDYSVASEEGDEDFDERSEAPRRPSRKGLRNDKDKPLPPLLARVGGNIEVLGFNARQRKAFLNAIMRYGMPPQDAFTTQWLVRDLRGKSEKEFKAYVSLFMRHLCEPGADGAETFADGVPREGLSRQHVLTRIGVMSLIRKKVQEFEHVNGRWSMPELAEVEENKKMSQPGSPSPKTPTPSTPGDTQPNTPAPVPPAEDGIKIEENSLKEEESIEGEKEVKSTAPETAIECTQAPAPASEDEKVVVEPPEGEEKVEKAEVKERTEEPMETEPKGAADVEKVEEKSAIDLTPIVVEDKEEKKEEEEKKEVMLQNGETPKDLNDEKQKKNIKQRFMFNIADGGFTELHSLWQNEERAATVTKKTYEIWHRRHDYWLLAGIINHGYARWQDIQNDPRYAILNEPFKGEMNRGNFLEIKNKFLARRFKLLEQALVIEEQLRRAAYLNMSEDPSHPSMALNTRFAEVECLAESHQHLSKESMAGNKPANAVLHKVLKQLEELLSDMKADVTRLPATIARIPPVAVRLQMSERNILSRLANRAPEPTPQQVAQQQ

Q: For `Cc1cc(-c2cc(O)ccc2Cl)cc2nnc(Nc3ccc(OCCN4CCCC4)cc3)nc12`, which Kd is on record?
A: > 30 µM (inactive)

Q: How did the Kd turn out when `Cc1ccc(NC(=O)c2ccc(CN3CC[C@H](N(C)C)C3)c(C(F)(F)F)c2)cc1Nc1nccc(-c2cncnc2)n1` [BAFETINIB] was run?
A: > 30 µM (inactive)

Q: For `Cc1cc2c(F)c(Oc3ncnn4cc(OC[C@@H](C)OC(=O)[C@H](C)N)c(C)c34)ccc2[nH]1` [BRIVANIB ALANINATE], which Kd is on record?
A: > 30 µM (inactive)

What follows are molecules tested against Protein kinase C alpha type (Homo sapiens, UniProt P17252).

Q: How did the Kd turn out when `Cc1cc(-c2cc(O)ccc2Cl)cc2nnc(Nc3ccc(OCCN4CCCC4)cc3)nc12` was run?
A: > 30 µM (inactive)

Q: `Cc1ccc(NC(=O)c2ccc(CN3CC[C@H](N(C)C)C3)c(C(F)(F)F)c2)cc1Nc1nccc(-c2cncnc2)n1` [BAFETINIB] was tested. Which Kd did it give?
A: > 30 µM (inactive)

Q: `Cc1cc2c(F)c(Oc3ncnn4cc(OC[C@@H](C)OC(=O)[C@H](C)N)c(C)c34)ccc2[nH]1` [BRIVANIB ALANINATE] was tested. Which Kd did it give?
A: > 30 µM (inactive)

Each molecule was assayed against Myosin-14 (Homo sapiens, UniProt Q7Z406).

Q: `Cc1ccc(NC(=O)c2ccc(CN3CC[C@H](N(C)C)C3)c(C(F)(F)F)c2)cc1Nc1nccc(-c2cncnc2)n1` [BAFETINIB] was tested. Which Kd did it give?
A: > 30 µM (inactive)

Q: `Cc1cc2c(F)c(Oc3ncnn4cc(OC[C@@H](C)OC(=O)[C@H](C)N)c(C)c34)ccc2[nH]1` [BRIVANIB ALANINATE] was tested. Which Kd did it give?
A: > 30 µM (inactive)

These molecules were tested against Ephrin type-A receptor 2 (Homo sapiens, UniProt P29317).

Q: For `Cc1cc(-c2cc(O)ccc2Cl)cc2nnc(Nc3ccc(OCCN4CCCC4)cc3)nc12`, which Kd is on record?
A: 0.001 µM (active)

Q: For `Cc1ccc(NC(=O)c2ccc(CN3CC[C@H](N(C)C)C3)c(C(F)(F)F)c2)cc1Nc1nccc(-c2cncnc2)n1` [BAFETINIB], which Kd is on record?
A: 0.09 µM (active)

Q: Which Kd does the source give for `Cc1cc2c(F)c(Oc3ncnn4cc(OC[C@@H](C)OC(=O)[C@H](C)N)c(C)c34)ccc2[nH]1` [BRIVANIB ALANINATE] here?
A: > 30 µM (inactive)

Each molecule was assayed against Inosine-5'-monophosphate dehydrogenase 2 (Homo sapiens, UniProt P12268).

Q: How did the Kd turn out when `Cc1cc(-c2cc(O)ccc2Cl)cc2nnc(Nc3ccc(OCCN4CCCC4)cc3)nc12` was run?
A: > 30 µM (inactive)

The molecules below were run against Wee1-like protein kinase (Homo sapiens, UniProt P30291).
Sequence of Wee1-like protein kinase (P30291 whole entry): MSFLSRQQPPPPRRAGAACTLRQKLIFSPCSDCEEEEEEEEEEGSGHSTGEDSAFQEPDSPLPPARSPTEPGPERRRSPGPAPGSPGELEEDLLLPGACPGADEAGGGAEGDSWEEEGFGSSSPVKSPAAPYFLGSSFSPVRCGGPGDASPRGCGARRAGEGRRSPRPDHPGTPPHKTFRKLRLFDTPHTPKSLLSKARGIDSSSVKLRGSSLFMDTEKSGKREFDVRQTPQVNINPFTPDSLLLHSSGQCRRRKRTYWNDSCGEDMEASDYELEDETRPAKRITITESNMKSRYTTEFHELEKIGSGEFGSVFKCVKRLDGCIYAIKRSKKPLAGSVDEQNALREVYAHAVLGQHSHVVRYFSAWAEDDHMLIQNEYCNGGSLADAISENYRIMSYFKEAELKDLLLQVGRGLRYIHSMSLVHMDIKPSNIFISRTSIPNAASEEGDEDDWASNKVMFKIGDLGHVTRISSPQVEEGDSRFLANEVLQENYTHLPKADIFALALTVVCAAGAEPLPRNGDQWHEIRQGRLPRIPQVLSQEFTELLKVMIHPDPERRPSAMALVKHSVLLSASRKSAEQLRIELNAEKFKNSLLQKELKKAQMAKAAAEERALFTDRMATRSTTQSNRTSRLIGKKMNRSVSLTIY

Q: How did the Kd turn out when `Cc1cc(-c2cc(O)ccc2Cl)cc2nnc(Nc3ccc(OCCN4CCCC4)cc3)nc12` was run?
A: > 30 µM (inactive)

Q: Which Kd does the source give for `Cc1ccc(NC(=O)c2ccc(CN3CC[C@H](N(C)C)C3)c(C(F)(F)F)c2)cc1Nc1nccc(-c2cncnc2)n1` [BAFETINIB] here?
A: > 30 µM (inactive)

Q: With `Cc1cc2c(F)c(Oc3ncnn4cc(OC[C@@H](C)OC(=O)[C@H](C)N)c(C)c34)ccc2[nH]1` [BRIVANIB ALANINATE] as the molecule, how does the Kd read?
A: > 30 µM (inactive)

Each molecule was assayed against T1, Serine/threonine-protein kinase STK11 (Homo sapiens, UniProt Q15831).
T1 sequence (Q15831 whole entry): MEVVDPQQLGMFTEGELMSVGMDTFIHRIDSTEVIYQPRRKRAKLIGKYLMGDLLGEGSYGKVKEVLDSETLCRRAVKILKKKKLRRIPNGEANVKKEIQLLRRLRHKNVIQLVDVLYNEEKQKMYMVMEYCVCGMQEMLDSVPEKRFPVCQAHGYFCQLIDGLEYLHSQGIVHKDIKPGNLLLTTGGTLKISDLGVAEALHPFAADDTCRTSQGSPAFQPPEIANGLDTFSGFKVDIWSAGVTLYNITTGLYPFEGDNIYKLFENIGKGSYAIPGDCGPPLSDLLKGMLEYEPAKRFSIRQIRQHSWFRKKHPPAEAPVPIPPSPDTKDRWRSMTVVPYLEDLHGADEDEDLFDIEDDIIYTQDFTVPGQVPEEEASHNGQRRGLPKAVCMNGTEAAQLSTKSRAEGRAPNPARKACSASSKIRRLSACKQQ

Q: For `Cc1cc(-c2cc(O)ccc2Cl)cc2nnc(Nc3ccc(OCCN4CCCC4)cc3)nc12`, which Kd is on record?
A: > 30 µM (inactive)

Q: For `Cc1ccc(NC(=O)c2ccc(CN3CC[C@H](N(C)C)C3)c(C(F)(F)F)c2)cc1Nc1nccc(-c2cncnc2)n1` [BAFETINIB], which Kd is on record?
A: > 30 µM (inactive)

Q: `Cc1cc2c(F)c(Oc3ncnn4cc(OC[C@@H](C)OC(=O)[C@H](C)N)c(C)c34)ccc2[nH]1` [BRIVANIB ALANINATE] was tested. Which Kd did it give?
A: > 30 µM (inactive)

The molecules below were run against T2, Phenylalanine--tRNA ligase beta subunit (Homo sapiens, UniProt Q9NSD9).
T2 sequence (Q9NSD9 whole entry): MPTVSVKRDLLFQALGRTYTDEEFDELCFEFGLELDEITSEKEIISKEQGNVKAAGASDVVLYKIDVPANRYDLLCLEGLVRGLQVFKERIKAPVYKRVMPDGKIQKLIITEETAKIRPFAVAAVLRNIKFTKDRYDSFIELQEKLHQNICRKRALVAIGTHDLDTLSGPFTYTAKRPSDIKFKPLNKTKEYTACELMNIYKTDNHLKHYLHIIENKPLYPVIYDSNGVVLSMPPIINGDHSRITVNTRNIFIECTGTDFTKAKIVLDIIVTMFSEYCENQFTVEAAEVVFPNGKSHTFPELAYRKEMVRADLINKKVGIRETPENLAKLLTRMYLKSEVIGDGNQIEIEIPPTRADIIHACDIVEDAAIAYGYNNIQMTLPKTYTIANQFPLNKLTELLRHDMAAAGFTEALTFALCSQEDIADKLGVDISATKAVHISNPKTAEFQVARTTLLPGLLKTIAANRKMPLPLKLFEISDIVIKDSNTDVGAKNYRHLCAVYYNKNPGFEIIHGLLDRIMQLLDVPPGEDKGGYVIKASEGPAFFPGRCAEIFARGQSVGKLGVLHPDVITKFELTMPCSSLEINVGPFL

Q: `Cc1cc(-c2cc(O)ccc2Cl)cc2nnc(Nc3ccc(OCCN4CCCC4)cc3)nc12` was tested. Which Kd did it give?
A: > 30 µM (inactive)

Q: `Cc1ccc(NC(=O)c2ccc(CN3CC[C@H](N(C)C)C3)c(C(F)(F)F)c2)cc1Nc1nccc(-c2cncnc2)n1` [BAFETINIB] was tested. Which Kd did it give?
A: > 30 µM (inactive)

Q: Which Kd does the source give for `Cc1cc2c(F)c(Oc3ncnn4cc(OC[C@@H](C)OC(=O)[C@H](C)N)c(C)c34)ccc2[nH]1` [BRIVANIB ALANINATE] here?
A: > 30 µM (inactive)

Each molecule was assayed against Adenosine kinase (Homo sapiens, UniProt P55263).
Sequence of Adenosine kinase (P55263 whole entry): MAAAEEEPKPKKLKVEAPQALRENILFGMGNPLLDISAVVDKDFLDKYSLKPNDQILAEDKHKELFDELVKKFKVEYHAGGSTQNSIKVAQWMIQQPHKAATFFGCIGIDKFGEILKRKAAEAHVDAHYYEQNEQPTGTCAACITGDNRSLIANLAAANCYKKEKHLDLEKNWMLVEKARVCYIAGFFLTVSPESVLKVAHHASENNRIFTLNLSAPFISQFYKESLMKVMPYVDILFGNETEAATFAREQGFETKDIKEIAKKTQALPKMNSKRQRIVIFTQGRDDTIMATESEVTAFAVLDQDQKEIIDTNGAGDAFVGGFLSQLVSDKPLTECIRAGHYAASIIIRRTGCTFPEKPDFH

Q: With `Cc1cc(-c2cc(O)ccc2Cl)cc2nnc(Nc3ccc(OCCN4CCCC4)cc3)nc12` as the molecule, how does the Kd read?
A: > 30 µM (inactive)

Q: How did the Kd turn out when `Cc1ccc(NC(=O)c2ccc(CN3CC[C@H](N(C)C)C3)c(C(F)(F)F)c2)cc1Nc1nccc(-c2cncnc2)n1` [BAFETINIB] was run?
A: > 30 µM (inactive)

Q: How did the Kd turn out when `Cc1cc2c(F)c(Oc3ncnn4cc(OC[C@@H](C)OC(=O)[C@H](C)N)c(C)c34)ccc2[nH]1` [BRIVANIB ALANINATE] was run?
A: > 30 µM (inactive)

What follows are molecules tested against Putative heat shock protein HSP 90-beta 2 (Homo sapiens, UniProt Q58FF8).
Sequence of Putative heat shock protein HSP 90-beta 2 (Q58FF8 whole entry): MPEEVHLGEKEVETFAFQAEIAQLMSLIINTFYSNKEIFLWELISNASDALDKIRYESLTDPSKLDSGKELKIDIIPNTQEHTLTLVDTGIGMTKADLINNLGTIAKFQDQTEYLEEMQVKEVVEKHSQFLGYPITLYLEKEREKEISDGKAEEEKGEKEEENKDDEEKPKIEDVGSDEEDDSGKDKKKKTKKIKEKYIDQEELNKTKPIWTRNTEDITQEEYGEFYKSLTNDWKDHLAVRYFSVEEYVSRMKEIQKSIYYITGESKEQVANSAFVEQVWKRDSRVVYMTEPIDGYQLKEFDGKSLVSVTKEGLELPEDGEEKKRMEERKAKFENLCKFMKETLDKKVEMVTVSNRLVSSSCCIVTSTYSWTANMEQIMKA

Q: With `Cc1cc(-c2cc(O)ccc2Cl)cc2nnc(Nc3ccc(OCCN4CCCC4)cc3)nc12` as the molecule, how does the Kd read?
A: > 30 µM (inactive)

Q: Which Kd does the source give for `Cc1ccc(NC(=O)c2ccc(CN3CC[C@H](N(C)C)C3)c(C(F)(F)F)c2)cc1Nc1nccc(-c2cncnc2)n1` [BAFETINIB] here?
A: > 30 µM (inactive)

Q: How did the Kd turn out when `Cc1cc2c(F)c(Oc3ncnn4cc(OC[C@@H](C)OC(=O)[C@H](C)N)c(C)c34)ccc2[nH]1` [BRIVANIB ALANINATE] was run?
A: > 30 µM (inactive)

What follows are molecules tested against 26S proteasome regulatory subunit 6B (Homo sapiens, UniProt P43686).

Q: Which Kd does the source give for `Cc1cc(-c2cc(O)ccc2Cl)cc2nnc(Nc3ccc(OCCN4CCCC4)cc3)nc12` here?
A: > 30 µM (inactive)

Q: How did the Kd turn out when `Cc1ccc(NC(=O)c2ccc(CN3CC[C@H](N(C)C)C3)c(C(F)(F)F)c2)cc1Nc1nccc(-c2cncnc2)n1` [BAFETINIB] was run?
A: > 30 µM (inactive)

Q: `Cc1cc2c(F)c(Oc3ncnn4cc(OC[C@@H](C)OC(=O)[C@H](C)N)c(C)c34)ccc2[nH]1` [BRIVANIB ALANINATE] was tested. Which Kd did it give?
A: > 30 µM (inactive)

These molecules were tested against T3, Tyrosine--tRNA ligase, cytoplasmic (Homo sapiens, UniProt P54577).
T3 sequence (P54577 whole entry): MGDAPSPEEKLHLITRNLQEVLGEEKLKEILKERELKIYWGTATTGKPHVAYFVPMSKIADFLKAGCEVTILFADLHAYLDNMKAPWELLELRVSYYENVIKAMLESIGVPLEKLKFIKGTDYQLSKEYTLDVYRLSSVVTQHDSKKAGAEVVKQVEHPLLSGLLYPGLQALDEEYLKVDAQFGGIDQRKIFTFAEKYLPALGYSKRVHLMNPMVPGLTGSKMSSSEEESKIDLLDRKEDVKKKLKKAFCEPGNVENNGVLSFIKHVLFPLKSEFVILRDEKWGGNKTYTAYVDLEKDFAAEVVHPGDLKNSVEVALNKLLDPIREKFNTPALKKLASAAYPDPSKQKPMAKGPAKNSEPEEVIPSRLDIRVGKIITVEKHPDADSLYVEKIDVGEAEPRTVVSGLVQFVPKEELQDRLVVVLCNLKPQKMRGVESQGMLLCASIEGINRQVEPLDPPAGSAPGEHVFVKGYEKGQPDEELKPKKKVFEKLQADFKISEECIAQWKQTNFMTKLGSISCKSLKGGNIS

Q: Which Kd does the source give for `Cc1cc(-c2cc(O)ccc2Cl)cc2nnc(Nc3ccc(OCCN4CCCC4)cc3)nc12` here?
A: > 30 µM (inactive)

Q: For `Cc1ccc(NC(=O)c2ccc(CN3CC[C@H](N(C)C)C3)c(C(F)(F)F)c2)cc1Nc1nccc(-c2cncnc2)n1` [BAFETINIB], which Kd is on record?
A: > 30 µM (inactive)

Q: For `Cc1cc2c(F)c(Oc3ncnn4cc(OC[C@@H](C)OC(=O)[C@H](C)N)c(C)c34)ccc2[nH]1` [BRIVANIB ALANINATE], which Kd is on record?
A: > 30 µM (inactive)

The molecules below were run against T4, Electron transfer flavoprotein subunit beta (Homo sapiens, UniProt P38117).
T4 sequence (P38117 whole entry): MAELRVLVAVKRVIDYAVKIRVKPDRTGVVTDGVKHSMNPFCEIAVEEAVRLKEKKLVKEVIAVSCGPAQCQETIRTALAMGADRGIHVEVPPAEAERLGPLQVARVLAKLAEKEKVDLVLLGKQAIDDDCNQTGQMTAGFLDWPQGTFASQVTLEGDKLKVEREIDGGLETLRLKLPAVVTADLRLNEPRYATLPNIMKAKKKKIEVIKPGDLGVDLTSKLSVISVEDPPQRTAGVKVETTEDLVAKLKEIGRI

Q: For `Cc1cc(-c2cc(O)ccc2Cl)cc2nnc(Nc3ccc(OCCN4CCCC4)cc3)nc12`, which Kd is on record?
A: > 30 µM (inactive)

Q: With `Cc1ccc(NC(=O)c2ccc(CN3CC[C@H](N(C)C)C3)c(C(F)(F)F)c2)cc1Nc1nccc(-c2cncnc2)n1` [BAFETINIB] as the molecule, how does the Kd read?
A: > 30 µM (inactive)

Q: How did the Kd turn out when `Cc1cc2c(F)c(Oc3ncnn4cc(OC[C@@H](C)OC(=O)[C@H](C)N)c(C)c34)ccc2[nH]1` [BRIVANIB ALANINATE] was run?
A: > 30 µM (inactive)

The molecules below were run against Mitogen-activated protein kinase kinase kinase 4 (Homo sapiens, UniProt Q9Y6R4).

Q: `Cc1cc(-c2cc(O)ccc2Cl)cc2nnc(Nc3ccc(OCCN4CCCC4)cc3)nc12` was tested. Which Kd did it give?
A: > 30 µM (inactive)

Q: `Cc1ccc(NC(=O)c2ccc(CN3CC[C@H](N(C)C)C3)c(C(F)(F)F)c2)cc1Nc1nccc(-c2cncnc2)n1` [BAFETINIB] was tested. Which Kd did it give?
A: > 30 µM (inactive)

Q: How did the Kd turn out when `Cc1cc2c(F)c(Oc3ncnn4cc(OC[C@@H](C)OC(=O)[C@H](C)N)c(C)c34)ccc2[nH]1` [BRIVANIB ALANINATE] was run?
A: > 30 µM (inactive)

The molecules below were run against Interleukin-1 receptor-associated kinase 1 (Homo sapiens, UniProt P51617).
Sequence of Interleukin-1 receptor-associated kinase 1 (P51617 whole entry): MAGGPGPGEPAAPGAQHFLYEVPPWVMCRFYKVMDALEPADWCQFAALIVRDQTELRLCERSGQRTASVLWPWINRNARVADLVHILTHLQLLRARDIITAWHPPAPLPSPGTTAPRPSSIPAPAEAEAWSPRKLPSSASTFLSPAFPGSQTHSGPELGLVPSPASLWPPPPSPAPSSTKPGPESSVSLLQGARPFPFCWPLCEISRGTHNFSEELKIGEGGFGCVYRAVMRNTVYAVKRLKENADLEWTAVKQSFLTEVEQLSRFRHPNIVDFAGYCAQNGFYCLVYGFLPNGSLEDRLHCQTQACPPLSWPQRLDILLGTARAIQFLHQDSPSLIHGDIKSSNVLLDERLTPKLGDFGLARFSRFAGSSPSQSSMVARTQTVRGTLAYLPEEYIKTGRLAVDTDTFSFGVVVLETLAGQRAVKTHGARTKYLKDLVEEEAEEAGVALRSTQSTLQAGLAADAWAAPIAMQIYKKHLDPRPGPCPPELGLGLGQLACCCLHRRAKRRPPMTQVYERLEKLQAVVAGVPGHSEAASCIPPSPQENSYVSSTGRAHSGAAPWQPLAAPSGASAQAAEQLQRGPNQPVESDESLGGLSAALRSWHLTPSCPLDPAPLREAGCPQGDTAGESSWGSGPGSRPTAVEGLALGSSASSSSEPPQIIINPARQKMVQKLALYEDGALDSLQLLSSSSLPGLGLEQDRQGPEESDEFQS

Q: How did the Kd turn out when `Cc1cc(-c2cc(O)ccc2Cl)cc2nnc(Nc3ccc(OCCN4CCCC4)cc3)nc12` was run?
A: > 30 µM (inactive)

Q: Which Kd does the source give for `Cc1ccc(NC(=O)c2ccc(CN3CC[C@H](N(C)C)C3)c(C(F)(F)F)c2)cc1Nc1nccc(-c2cncnc2)n1` [BAFETINIB] here?
A: 2.06 µM

Q: With `Cc1cc2c(F)c(Oc3ncnn4cc(OC[C@@H](C)OC(=O)[C@H](C)N)c(C)c34)ccc2[nH]1` [BRIVANIB ALANINATE] as the molecule, how does the Kd read?
A: > 30 µM (inactive)
